# What was measured:
# [1] = Renal impairment study: single dose PK of CTP-543 and metabolites C-21714, C-21717; conditions: single 12 mg oral dose of CTP-543; normal renal function N = 8; geometric mean (geometric CV %)
# From the text: The study enrolled 8 subjects in the normal renal function cohort, and 8 subjects in the moderate impaired renal function cohort.
# The primary endpoint of this study was single dose PK exposure parameters: Cmax, AUC(0-Tlast), and AUC(0-∞).
# The secondary endpoints of this study were: • Adverse Events, clinical laboratory findings, physical examinations, ECGs, and vital signs. • Other PK parameters, such as, but not limited to: Tmax, λz, t1/2, CL/F, and Vz/F.
# (§1) All subjects had samples collected for PK.
# PK parameters were determined using non-compartmental analysis (NCA) methods based on individual plasma concentration-time data for all PK analytes.
# plasma protein = assay: Renal impairment study: plasma protein binding of CTP-543; format: in vitro ADME, human; conditions: 2 hours post-dose; moderate renal impairment vs matched controls with normal renal function
# From the text: as §1
# [2] = tested on: adult subjects with moderate to severe AA; assay: Phase III trial: Hair Satisfaction Patient Reported Outcome (SPRO); format: in vivo, human; conditions: for percentage of subjects with a ≥2 point change from baseline on SPRO: 12 mg BID
# From the text: The SPRO is a single-item questionnaire answered by the subject and designed to measure how satisfied Alopecia Areata subjects are with their hair at the time of the assessment. Subjects answer questions on a scale of 1 to 5, representing “Very satisfied” to “Very dissatisfied.” Satisfaction categories 1-5 of the scale were defined as follows: 1=“Very Satisfied”; 2=“Satisfied”; 3=“Neither Satisfied nor Dissatisfied”; 4=Dissatisfied”; and 5=“Very Dissatisfied”.
# The results of the SPRO was analyzed in three different ways: 1) the percentage of responders, 2) the change from baseline, and 3) the percentage of subjects achieving a ≥2.0 point change from baseline.
# A Phase III trial was conducted to assess the efficacy and safety of CTP-543 in adult subjects with moderate to severe AA. Approximately 440 adult male and female subjects 18 to 65 years of age, inclusive, with moderate to severe AA participated in the study. Subjects with definitive diagnosis of AA, and at least 50% hair loss, as defined by a SALT score ≥50, who met all of the inclusion criteria and none of the exclusion criteria participated in the study.
# The Screening Period lasted up to 28 days prior to initiation of study drug. […] Randomization was stratified by scalp hair loss into 1 of the following 2 categories: 1) partial scalp hair loss (SALT ≥50 and <95), 2) complete or near complete scalp hair loss (SALT ≥95).
# The key secondary efficacy endpoints were the percentage of responders (defined as “satisfied” or “very satisfied”) on the Hair Satisfaction Patient Reported Outcome (SPRO) scale at Week 24, 20, 16, 12, and 8.
# The Hair Satisfaction Patient Reported Outcome (SPRO) was also determined based on the 5-point SPRO scale from baseline through Week 24 among primary endpoint responders. The subjects that received a SALT score ≤20 at Week 24 in the THRIVE-AA1 and THRIVE-AA2 trials were included in the analysis. […]
# The SPRO was evaluated in 3 different ways: the percentage of responders, the change from baseline, and the percentage of subjects achieving a ≥2.0 point change from baseline.
# subjects with AA [3] = assay: Open-label extension (OLE) studies: SALT score; format: in vivo, human; conditions: 12 mg BID in OLE, placebo in the earlier studies, 52 weeks
# From the text: Subjects completing 24 weeks of treatment with […]
# (§2) The qualifying clinical trials including the following: 1. NCT03137381; 2. NCT03811912; 3. NCT03941548; 4. NCT04784533; 5. NCT04518995; and 6. NCT04797650 (all available a at https://clinicaltrials.gov).
# The OLE Efficacy Population is defined as all subjects who received at least one dose of deuruxolitinib and had at least one post-baseline SALT assessment in OLE. The data analyses include subjects' data from the qualifying trial. Missing SALT scores were not imputed. The number of subjects decreases over time due to missing data, patient discontinuations, or subjects not yet at the later timepoints. Any SALT data after a qualifying dose change in the OLE was censored for all figures included here, except those showing the overall treatment sequence. A “qualifying dose change” referred to herein can be placebo in any qualifying trial to any dose of deuruxolitinib in the OLE (includes subjects who switched doses), or any dose of deuruxolitinib in a qualifying trial to any dose of deuruxolitinib in the OLE. Various analyses using SALT scores were conducted to best estimate the overall long-term effect of deuruxolitinib considering the issues with dose changes and decreasing patient numbers over time. “Any Dose” analysis tracks all active subjects over time pooled across the two doses. […]
# subjects with AA [4] = assay: Open-label extension (OLE) studies: safety; format: in vivo, human
# From the text: as §2
smiles,measurement,setting,value
"[2H]C1([2H])C([C@@H](CC#N)n2cc(-c3ncnc4[nH]ccc34)cn2)C([2H])([2H])C([2H])([2H])C1([2H])[2H] [CTP-543, (R)-3-(4-(7H-pyrrolo[2,3-d]pyrimidin-4-yl)-1H-pyrazol-1-yl)-3-(cyclopentyl-2,2,3,3,4,4,5,5-d8) propanenitrile]",Clast,[1],0.898 (116.3) ng/mL
same,"plasma protein binding, difference between cohorts",plasma protein,no meaningful differences
same,SPRO Responders: Yes,"[2]; 12 mg BID (N = 127), Week 24, non-missing data",62 (51.7) n (%)
same,percentage of subjects with a ≥2 point change from baseline on SPRO,"[2]; week 16, non-missing data",57.4%
same,percentage of subjects with a ≥2 point change from baseline on SPRO,"[2]; week 24, non-missing data",61.7%
same,mean SALT score,subjects with AA [3],43.0
same,number of serious treatment-related TEAEs,subjects with AA [4]; OLE studies,remains low
same,tolerability,subjects with AA [4]; OLE studies,generally well tolerated
same,subjects with related thrombotic events,"subjects with AA [4]; all at the 12 mg BID dose, following ≥52 weeks of dosing",four
same,treatment-emergent adverse event findings,subjects with AA [4]; integrated analyses,consistent with the safety profiles observed for other JAK inhibitors

# — patent US12364699B2, “Method of treating hair loss disorders” (Sun Pharmaceutical Industries, Inc., priority 2023, dated 2025)
